This passage reports IC50 results from patent US11884627B2, “Compounds and compositions for treating conditions associated with LPA receptor activity” (Lhotse Bio, Inc., priority 2022, dated 2024).

In the assay the target is T1, human LPA1 (Homo sapiens, UniProt Q92633).
T1 construct: expressed in transfected cells; host or cells: CHO-K1
Nature of the assay: In vitro LPA1 calcium flux antagonist assay - Bioduro protocol. Type of assay: cell-based. The conditions noted are these: CHO-K1 cells overexpressing human LPA1 and G15a, LPA challenge at EC80. On the procedure: In Vitro LPA1 Calcium Flux Antagonist Assay—Bioduro Protocol
CHO-K1 cells overexpressing human LPA1 and G15a were seeded at a total volume of 20 μL (15000 cells/well) into Matrigel pre-coated 384-well plates (corning −3764) and incubated at 37° C. After overnight incubation, the cells were serum starved for 4 h. Assays were performed in dye loading buffer containing 1× Fluo-8 AM (AAT Bioquest, 21080) and 2.5 mM probenecid (Thermo Fisher, 36400) in HBSS/20 mM Hepes. After cell starvation, the medium was replaced with 20 μL of dye loading buffer and incubated at 37° C., for 30 min. Then 5 μL of 5× compound titrated in dye loading buffer was added to the cells and incubated for 30 min followed by LPA challenge at EC80. Calcium mobilization was measured on a FLIPR Tetra (MSD). For LPA EC80 determination, starved cells were incubated with 20 μL of dye loading buffer for 1 h, then 5 μL of 5×LPA titrated in dye loading buffer was added to the cells. Calcium signals induced by LPA was monitors on a FLIPR.
Percentage inhibition is calculated using the following formula: % Inhibition=100%×(1−(mean RFU of test sample−mean RFU of DMSO)/(mean RFU of LPA control−mean RFU of DMSO)).
Table B3 and Table B4 show the biological activity of compounds in in vitro LPA1 Calcium flux antagonist assay—Bioduro protocol.
(A change in cytosolic calcium serves as a functional read-out for many receptors and channels.)

Setting [1] is: calcium mobilization on FLIPR Tetra, read-out: IC50.
[2] abbreviates: Table B3, read-out: Activity (IC50 class).

In general, IC50 refers to the concentration needed to halve the response being measured.

SMILES strings stand for the structures. Where two headings read alike, the source gives them in different places.

T1 sequence (Q92633 whole entry): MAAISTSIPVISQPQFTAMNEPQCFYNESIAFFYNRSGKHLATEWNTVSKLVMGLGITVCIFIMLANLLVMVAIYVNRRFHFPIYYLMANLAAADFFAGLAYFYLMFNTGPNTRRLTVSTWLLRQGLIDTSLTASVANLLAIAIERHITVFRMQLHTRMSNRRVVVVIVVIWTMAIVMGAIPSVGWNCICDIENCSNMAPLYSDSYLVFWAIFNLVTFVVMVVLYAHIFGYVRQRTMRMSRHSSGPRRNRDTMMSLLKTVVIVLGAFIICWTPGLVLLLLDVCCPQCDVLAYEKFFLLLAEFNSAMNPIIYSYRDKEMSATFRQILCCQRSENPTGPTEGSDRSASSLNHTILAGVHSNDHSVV

As for `COc1cc(-c2ccc(OC3(C(=O)O)CC3)cc2COC2Cc3ccccc3C2)cc(OC)c1C` [Compound 117, 1-({2-[(2,3-dihydro-1H-inden-2-yloxy)methyl]-3′,5′-dimethoxy-4′-methyl-[1,1′-biphenyl]-4-yl}oxy)cyclopropane-1-carboxylic acid], the IC50 was 60.5 nM under setting [1] and < 100 nM under setting [2].

Consider `COc1cc(OC)cc(-c2ccc(NC3(C(=O)O)CCOCC3)cc2CCN2CCCC2=O)c1` [Compound 202], for which the IC50 under setting [1] is > 10000 nM and the IC50 under setting [2] was > 1000 nM.

Consider `CCOc1cncc(-c2ccc(NC3(C(=O)O)CCOCC3)cc2COC2Cc3ccccc3C2)c1C` [Compound 411, 4-({3-[(2,3-dihydro-1H-inden-2-yloxy)methyl]-4-(5-ethoxy-4-methylpyridin-3-yl)phenyl}amino)oxane-4-carboxylic acid], for which the IC50 reads like this: under setting [1], 5.2 nM; under setting [2], < 100 nM.

With `COc1cc(OC2CC2)cc(-c2ccc(NC3(C(=O)O)CCOCC3)cc2COC2CC2)c1` [Compound 332], the IC50 under setting [1] worked out at 139 nM and the half-inhibitory concentration (IC50) under setting [2] was < 100 nM.

With `COc1cc(-c2ccc(NC3(C(=O)O)CCOCC3)cc2COC2CCCC2)ccc1C` [Compound 145], the IC50 was 486 nM under setting [1] and 100 to 1000 nM under setting [2].

With `CCOc1cccc(-c2ccc(OC3(C(=O)O)CCOCC3)cc2COC2CC2)c1Cl` [Compound 374], the IC50 by setting is: under setting [1], 14.6 nM; under setting [2], < 100 nM.

On to `COCC1CC(Nc2ccc(-c3cc(OC)c(C)c(OC)c3)c(COC3Cc4ccccc4C3)c2)(C(=O)O)C1` (stereo not drawn) [Compound 143], for which the half-inhibitory concentration (IC50) is, setting by setting: under setting [1], 53.8 nM; under setting [2], < 100 nM.

`COc1cc(-c2ccc(NC3(C(=O)O)CCOCC3)cc2COC2CC2)c(C(F)F)c(OC)c1C` [Compound 310]: the IC50 was 6.93 nM under setting [1] and < 100 nM under setting [2].

For the molecule `COc1cc(-c2ccc(OC3(C(=O)O)CCOCC3)cc2COC2CC2)c(C)c(OC)c1C` [Compound 354], the IC50 is, setting by setting: under setting [1], 35.5 nM; under setting [2], < 100 nM.

For the molecule `COc1cc(-c2ccc(NC3(C(=O)O)CCOCC3)cc2COC2CCCC2)cc(OC)c1C(F)F` [Compound 274], the IC50 was 28 nM under setting [1] and < 100 nM under setting [2].

With `COc1cc(-c2c(C)cc(NC3(C(=O)O)CCOCC3)cc2COC2CCCC2)cc(OC)c1C` [Compound 141, 4-((2-((cyclopentyloxy)methyl)-3′,5′-dimethoxy-4′,6-dimethyl-[1,1′-biphenyl]-4-yl)amino) tetrahydro-2H-pyran-4-carboxylic acid], the IC50 reads like this: under setting [1], 24.5 nM; under setting [2], < 100 nM.

As for `CCOc1cccc(-c2ccc(NC3(C(=O)O)CCOCC3)cc2COC2CCCC2)c1F` [Compound 245, 4-((2-((cyclopentyloxy)methyl)-3′-ethoxy-2′-fluoro-[1,1′-biphenyl]-4-yl)amino)tetrahydro-2H-pyran-4-carboxylic acid], the IC50 is 23.2 nM under setting [1] and < 100 nM under setting [2].

With `COc1cc(OC2CC2)cc(-c2ccc(OC3(C(=O)O)CCOCC3)cc2COC2CCCC2)c1` [Compound 378], the IC50 is, setting by setting: under setting [1], 834 nM; under setting [2], 100 to 1000 nM.

`COc1c(C(C)OC)ccc(-c2ccc(NC3(C(=O)O)CCOCC3)cc2COC2CCCC2)c1C` (single isomer, unassigned) [Compound 242]: the half-maximal inhibitory concentration (IC50) is 266 nM under setting [1] and 100 to 1000 nM under setting [2].

In the case of `Cc1cccc(-c2ccc(NC3(C(=O)O)CCOCC3)cc2COC2CC2)c1F` [Compound 328], the IC50 runs as follows: under setting [1], > 10000 nM; under setting [2], > 1000 nM.

On to `CCCCOCc1cc(NC2(C(=O)O)CCOCC2)ccc1-c1cc(OC)cc(OC)c1Cl` [Compound 402], for which the IC50 is, setting by setting: under setting [1], 7.59 nM; under setting [2], < 100 nM.

Turning to `COc1cc(OC)cc(-c2ccc(NC3(C(=O)O)CCOCC3)cc2COC2CCCC2)c1` [Compound 146], the 50% inhibitory concentration (IC50) by setting is: under setting [1], 77.2 nM; under setting [2], < 100 nM.

Take `CCCOCc1cc(NC2(C(=O)O)CCOCC2)ccc1-c1cc(OC)c(C)c(OC)c1F` [Compound 334]: the half-maximal inhibitory concentration (IC50) reads like this: under setting [1], 45.2 nM; under setting [2], < 100 nM.
